# Several values for one entry are separate records, joined by “and”; a condition that tells them apart may be missing. Equal values may be shown once. Entries after “also recorded” stand apart in the source; their conditions may differ.
# Columns and labels:
# [1] = test system: native rabbit intestinal tissue
# [2] = test system: native rabbit intestinal tissue; remark: listed apart in the source
# [3] = test system: native rabbit intestinal tissue; test: Electrical field stimulation induced relaxation, real-time force generation
# [4] = test system: tissue engineered innervated intestinal smooth muscle sheets; format: cell-based, rabbit
# [5] = test system: tissue engineered innervated intestinal smooth muscle sheets; test: Electrical field stimulation induced relaxation, real-time force generation; format: cell-based, rabbit
compound,measurement,setting,value
"CC(=O)OCC[N+](C)(C)C [Ach, Acetylcholine]",area under the curve of Ach-induced contraction,"[1]; 1 μM Ach, native tissue",70448±5876 AU
same,peak Ach-induced contraction,"[1]; 1 μM Ach, native tissue",342.6±3.15 μN
"[Cl-].[K+] [KCl, Potassium chloride]",peak KCl-induced contraction,[2],373.5±10.63 μN and 373.3±10.63 μN
"COC(=O)[C@@H](N)CCCNC(=N)N[N+](=O)[O-].Cl [L-NAME, Nω-Nitro-L-arginine methyl ester hydrochloride]",inhibition of EFS-induced relaxation with L-NAME,"[3]; L-NAME 300 μM pre-treatment, hydrochloride",78±2.9% and ~78%
same,inhibition at 300 µM,"[3]; Oryctolagus cuniculus, L-NAME 300 μM pre-treatment, read-out: inhibition of EFS-induced relaxation with L-NAME",78 ± 2.85%
"NC1=N[C@H](O)[C@H]2[C@H]3O[C@]4(O)O[C@@H]([C@@H](O)[C@@]2(N1)[C@@H]4O)[C@]3(O)CO [TTX, tetrodotoxin]",effect of TTX pre-treatment on KCl-induced contraction,[4],unaffected; also recorded: did not inhibit
same,inhibition of Ach-induced contraction with TTX,[1],72.73±3.66% and 72.73±3.7%
same,effect of TTX pre-treatment on EFS-induced relaxation,[5],inhibited entirely
"[D-p-Cl-Phe6, Leu17]-Vasoactive Intestinal Peptide [VIP-Ra]",inhibition of EFS-induced relaxation with VIP-Ra,[3]; VIP-Ra 2 μM pre-treatment,73.32±3.23%

# — patent US10377985B2, “Neural progenitor cell differentiation” (priority 2013, dated 2019)
